The text below walks through data of ChEMBL document CHEMBL4742385 (2019).

Where “and” joins values, the source holds several entries; their conditions need not be identical. Equal entries are not always repeated.

One assay has as its system RPMI-8226. In words: Antiproliferative activity against human RPMI-8226 assessed as inhibition of cell growth at 1 uM after 8 days measured after Celltiter-Glo assay relative to control. The class given is functional. The note with it: time 8 day; for inhibition at 1 µM: Homo sapiens, RPMI-8226, 192 h. On the technique in general: ATP-based viability assays read luminescence as a measure of living cells.

Assay [1] has as its target Cyclin-C/Cyclin-dependent kinase 19 (Homo sapiens) (UniProt Q9BWU1+P24863). In words: Inhibition of humanGST-tagged CDK19/Cyc C expressed in Sf21 cells at 1 uM measured after 1 hr by fluorescence plate reader relative to control.
Assay [2] has as its target CDK8/Cyclin C (Homo sapiens) (UniProt P49336+P24863). In words: Inhibition of human CDK8/Cyc C expressed in Sf21 cells at 1 uM measured after 1 hr by fluorescence plate reader relative to control.

For orientation: inhibition means the drop in the measured response relative to a control, in per cent. For the molecule `O=C(/C=C/c1cnccc1-c1ccc2[nH]cnc2c1)Nc1ccc(CN2CCOCC2)cc1`, in the assay with RPMI-8226, the inhibition at 1 µM was 66%. Moreover, the inhibition stood at 101% in assay [1] and 99% in assay [2].

As for `O=C(/C=C/c1cnccc1-c1cnn(C2CC2)c1)Nc1ccc(CN2CC(F)(F)C2)cc1.O=C(O)/C=C/C(=O)O`, the “inhibition (INH)” value with RPMI-8226 is 70%.

Take `Cn1cc(-c2ccncc2/C=C/C(=O)Nc2ccc(CN3CC(F)(F)C3)cc2)cn1`: the inhibition at 1 µM in the assay with RPMI-8226 was 48%. The inhibition in assay [1] and in assay [2] was 99% throughout.

Consider `Cn1cc(-c2ccncc2/C=C/C(=O)Nc2ccc(CN3CCOCC3)cc2)cn1`, for which the inhibition at 1 µM with RPMI-8226 came to 60%. Also, the inhibition in assay [1] stood at 98%; in assay [2], 100%.

Take `CN1CCc2ccc(NC(=O)/C=C/c3cnccc3-c3cnn(C)c3)cc2C1`: the inhibition at 1 µM with RPMI-8226 came to 52%. The values for the inhibition in assay [1] and in assay [2] were 98% and 100%, respectively.

On to `Cn1cc(-c2ccncc2/C=C/C(=O)Nc2ccc(CN3CC4CC3CO4)cc2)cn1` (centres undefined), for which the inhibition at 1 µM with RPMI-8226 was determined as 58%. Moreover, the inhibition in assay [1] is 96%; in assay [2] it was 100%.

Regarding `Cn1cc(-c2ccncc2/C=C/C(=O)Nc2ccc(CN3CCOCC3)cc2F)cn1`, the inhibition at 1 µM in the assay on RPMI-8226 is 56%. Besides, the results for the inhibition in assay [1] and in assay [2] were 97% and 99%, respectively.

In the case of `Cn1cc(-c2ccncc2/C=C/C(=O)Nc2ccc(N3CCOCC3)c(Cl)c2)cn1`, the inhibition at 1 µM in the assay with RPMI-8226 is 60%. For the same molecule, the inhibition in assay [1] turned out to be 100%; in assay [2], 102%.

On to `O=C(/C=C/c1cnccc1-c1cnn(C2CC2)c1)Nc1ccc(COC(F)F)cc1`, for which the inhibition at 1 µM in the assay on RPMI-8226 is 52%. In addition, the values for the inhibition in assay [1] and in assay [2] were 93% and 97%, respectively.

Regarding `Cn1cc(-c2ccncc2/C=C/C(=O)Nc2ccc3cc[nH]c3c2)cn1`, the inhibition at 1 µM in the assay with RPMI-8226 was 54%. Moreover, the inhibition in assay [1] was found to be 93%; in assay [2], 98%.

In the case of `COC(C)(C)Cc1ccc(NC(=O)/C=C/c2cnccc2-c2cnn(C3CC3)c2)cc1`, the inhibition at 1 µM in the assay with RPMI-8226 is 67%. Further, the inhibition in assay [1] is 94%; in assay [2] it was 101%.

For `O=C(/C=C/c1cnccc1-c1cnn(Cc2ccccn2)c1)Nc1ccc(CN2CCOCC2)cc1`, the inhibition at 1 µM in the assay with RPMI-8226 was determined as 57%. Also, the figures for the inhibition in assay [1] and in assay [2] were 98% and 101%, respectively.

In the case of `Cc1nn(C)cc1-c1ccncc1/C=C/C(=O)Nc1ccc(CCc2nnco2)cc1`, the inhibition at 1 µM in the assay on RPMI-8226 amounted to 54%. Also, the results for the inhibition in assay [1] and in assay [2] were 98% and 100%, respectively.

Regarding `CN(C)CCOc1ccc(NC(=O)/C=C/c2cnccc2-c2cnn(C)c2)cc1`, the inhibition at 1 µM in the assay with RPMI-8226 stood at 60%. For the same molecule, the inhibition in assay [1] turned out to be 93%; in assay [2] it was 99%.

Turning to `Cn1cnc2ccc(-c3c(F)cncc3/C=C/C(=O)Nc3ccc4c(c3)CN(CC(F)(F)F)C4)cc21`, the inhibition at 1 µM with RPMI-8226 stood at 69%. Moreover, the values for the inhibition in assay [1] and in assay [2] were 96% and 101%, respectively.

For `Cn1cc(-c2ccncc2/C=C/C(=O)Nc2ccc(CN3CCC(F)(F)C3)cc2)cn1`, the inhibition at 1 µM in the assay with RPMI-8226 is 62%. Moreover, the inhibition in assay [1] is 100%; in assay [2], 99%.

Turning to `Cc1ccc(NC(=O)/C=C/c2cnccc2-c2cn[nH]c2)c(F)c1`, the inhibition at 1 µM with RPMI-8226 was found to be 59%. For the same molecule, the inhibition amounted to 97% in assay [1] and 100% in assay [2].

`O=C(/C=C/c1cnccc1-c1ccc2[nH]ncc2c1)Nc1ccc(CN2CCOCC2)cc1`: the inhibition at 1 µM with RPMI-8226 was 55%. For the same molecule, the inhibition amounted to 97% in assay [1] and 96% in assay [2].

On to `O=C(/C=C/c1cnccc1-c1cnn2ccccc12)Nc1ccc(CN2CCOCC2)cc1`, for which, in the assay on RPMI-8226, the inhibition at 1 µM was 55%. Also, the inhibition in assay [1] came out at 97%; in assay [2] it was 98%.

Turning to `COc1ccsc1-c1ccncc1/C=C/C(=O)Nc1ccc(CN2CCOCC2)cc1`, the inhibition at 1 µM in the assay with RPMI-8226 worked out at 52%. The inhibition in assay [1] is 100%; in assay [2], 97%.

As to `COCc1ccc(NC(=O)/C=C/c2cnccc2-c2cnn(C)c2)cc1`, the inhibition at 1 µM in the assay on RPMI-8226 amounted to 65%. Further, the inhibition in assay [1] and in assay [2] was 100% each time.

Consider `O=C(/C=C/c1cnccc1-c1cnn(C2CC2)c1)Nc1ccc(C2CC2)cc1`, for which the inhibition at 1 µM in the assay with RPMI-8226 amounted to 53%. Besides, the inhibition was found to be 89% in assay [1] and 95% in assay [2].

In the case of `CCN1CCc2ccc(NC(=O)/C=C/c3cnccc3-c3cnn(C)c3)cc2C1`, the inhibition at 1 µM in the assay with RPMI-8226 came to 56%. In addition, the inhibition worked out at 95% in assay [1] and 99% in assay [2].

Turning to `Cn1cc(-c2ccncc2/C=C/C(=O)Nc2ccc3c(c2)CCO3)cn1`, the inhibition at 1 µM with RPMI-8226 is 55%. Also, the inhibition in assay [1] amounted to 95%; in assay [2], 96%.

Take `O=C(/C=C/c1cnccc1-c1cnn(C2CC2)c1)Nc1ccc(CN2CC(F)(F)C2)cc1.O=C(O)CCC(=O)O`: the “inhibition (INH)” value in the assay on RPMI-8226 is listed as 66%.

In the case of `CC1COCCN1Cc1ccc(NC(=O)/C=C/c2cnccc2-c2cnn(C)c2)cc1` (centres undefined), the inhibition at 1 µM in the assay with RPMI-8226 came to 55%. In addition, the inhibition was 95% in assay [1] and 100% in assay [2].

As to `CC(=O)n1cc(-c2ccncc2/C=C/C(=O)Nc2ccc(CN3CCOCC3)cc2)cn1`, in the assay with RPMI-8226, the inhibition at 1 µM came out at 65%. The inhibition in assay [1] came out at 101%; in assay [2], 96%.

As to `Cn1cc(-c2ccncc2/C=C/C(=O)Nc2ccc(N3CC(F)(F)C3)cc2)cn1`, in the assay on RPMI-8226, the inhibition at 1 µM turned out to be 50%. Besides, the inhibition was found to be 99% in assay [1] and 105% in assay [2].

Consider `O=C(/C=C/c1cnccc1-c1ccc2ncn(CC3CC3)c2c1)Nc1ccc(CN2CCOCC2)cc1`, for which the inhibition at 1 µM in the assay on RPMI-8226 was 60%. In addition, the results for the inhibition in assay [1] and in assay [2] were 96% and 95%, respectively.

Consider `CC(C)(O)Cc1ccc(NC(=O)/C=C/c2cnccc2-c2cnn(C3CC3)c2)cc1`, for which the inhibition at 1 µM in the assay with RPMI-8226 is 61%. Further, the results for the inhibition in assay [1] and in assay [2] were 103% and 100%, respectively.

With `O=C(/C=C/c1cnccc1-c1cncs1)Nc1ccc(CN2CCOCC2)cc1`, in the assay with RPMI-8226, the inhibition at 1 µM was 52%. Also, the inhibition amounted to 97% in assay [1] and 94% in assay [2].

In the case of `C[C@@H]1CN(Cc2ccc(NC(=O)/C=C/c3cnccc3-c3cnn(C)c3)cc2)C[C@H](C)O1`, the inhibition at 1 µM in the assay with RPMI-8226 was determined as 58%. The results for the inhibition in assay [1] and in assay [2] were 97% and 101%, respectively.

Regarding `Cn1cc(-c2ccncc2/C=C/C(=O)Nc2ccc(Oc3ccncc3)cc2)cn1`, the inhibition at 1 µM in the assay on RPMI-8226 was determined as 54%. Besides, the inhibition was found to be 96% in assay [1] and 95% in assay [2].

For `O=C(/C=C/c1cnccc1-c1cn[nH]c1)Nc1ccc(CN2CCOCC2)cc1`, in the assay with RPMI-8226, the inhibition at 1 µM stood at 61%. Further, the inhibition is 99% in assay [1] and 100% in assay [2].

Regarding `O=C(/C=C/c1cnccc1-c1cnn(C2CC2)c1)Nc1ccc2c(c1)CN(CC(F)(F)C(F)(F)F)CC2`, the inhibition at 1 µM in the assay on RPMI-8226 turned out to be 57%. The inhibition in assay [1] came to 94%; in assay [2], 97%.

With `Cn1cc(-c2ccncc2/C=C/C(=O)Nc2ccc(CC#N)cc2)cn1`, the inhibition at 1 µM in the assay on RPMI-8226 was determined as 57%. Further, the inhibition in assay [1] is 95%; in assay [2] it was 92%.

Take `COc1ncc(-c2ccncc2/C=C/C(=O)Nc2ccc(CN3CCOCC3)cc2)s1`: the inhibition at 1 µM in the assay with RPMI-8226 stood at 63%. The inhibition in assay [1] was 98%; in assay [2] it was 99%.

For the molecule `COC1CN(Cc2ccc(NC(=O)/C=C/c3cncc(F)c3-c3cnn(C4CC4)c3)c(F)c2)C1`, the inhibition at 1 µM in the assay with RPMI-8226 was determined as 63%. Also, the figures for the inhibition in assay [1] and in assay [2] were 96% and 103%, respectively.

For `Cn1cc(-c2ccncc2/C=C/C(=O)Nc2ccc(Cn3cccn3)cc2)cn1`, in the assay with RPMI-8226, the inhibition at 1 µM came to 53%. Also, the inhibition in assay [1] turned out to be 97%; in assay [2], 102%.

In the case of `Cn1cc(-c2ccncc2/C=C/C(=O)Nc2ccc3c(c2)OCC3)cn1`, the inhibition at 1 µM in the assay with RPMI-8226 is 55%. In addition, the inhibition is 94% in assay [1] and 100% in assay [2].

Turning to `CS(=O)(=O)O.O=C(/C=C/c1cnccc1-c1cnn(C2CC2)c1)Nc1ccc(CN2CC(F)(F)C2)cc1`, the “inhibition (INH)” value in the assay on RPMI-8226 stood at 70%.

As to `O=C(/C=C/c1cncc(F)c1-c1cnn(C2CC2)c1)Nc1ccc2c(c1)OCCO2`, in the assay with RPMI-8226, the inhibition at 1 µM worked out at 65%. Besides, the inhibition stood at 98% in assay [1] and 103% in assay [2].

With `O=C(/C=C/c1cnccc1-c1cnn(C2CC2)c1)Nc1ccc2c(c1)CCN(CC(F)(F)F)C2`, in the assay on RPMI-8226, the inhibition at 1 µM is 49%. Besides, the inhibition in assay [1] turned out to be 98%; in assay [2] it was 103%.

For the molecule `O=C(/C=C/c1cnccc1-c1cnn(C2CC2)c1)Nc1ccc2c(c1)CN(CC(F)(F)F)C2`, in the assay on RPMI-8226, the inhibition at 1 µM stood at 47%. Moreover, the inhibition in assay [1] turned out to be 101%; in assay [2], 103%.

`Cc1ncc(-c2ccncc2/C=C/C(=O)Nc2ccc(CN3CCOCC3)cc2)s1`: the inhibition at 1 µM with RPMI-8226 was 54%. Moreover, the inhibition in assay [1] and in assay [2] was 95% in each case.

With `Cn1cc(-c2c(F)cncc2/C=C/C(=O)Nc2ccc(CN3CCOCC3)cc2)cn1`, the inhibition at 1 µM in the assay with RPMI-8226 was 67%. Besides, the inhibition in assay [1] and in assay [2] was 100% throughout.

Turning to `CC(=O)N(C)Cc1cc(NC(=O)/C=C/c2cnccc2-c2cnn(C)c2)ccc1C`, in the assay with RPMI-8226, the inhibition at 1 µM is 49%. For the same molecule, the inhibition in assay [1] amounted to 93%; in assay [2], 95%.

For the molecule `O=C(/C=C/c1cnccc1-c1cnn(C2CC2)c1)Nc1ccc(CN2CC(F)(F)C2)cc1.O=P(O)(O)O.O=P(O)(O)O`, in the assay on RPMI-8226, the “inhibition (INH)” value was determined as 69%.

For the molecule `O=C(/C=C/c1cnccc1-c1cnn(C2CC2)c1)Nc1ccc(CN2CC(F)(F)C2)cc1`, the inhibition in assay [1] is 101% (3×) and 100% (3×); in assay [2], 102% [middle of 6 runs].

Consider `O=C(/C=C/c1cnccc1-c1cnn(C2CC2)c1)Nc1ccc(CN2CC(F)(F)C2)cc1.O=S(=O)(O)O`, for which the “inhibition (INH)” value in the assay on RPMI-8226 turned out to be 70%.
